According to patent US20240366612A1, “COMPOUNDS AND METHODS FOR MODULATING NUCLEIC ACID SPLICING” (REMIX THERAPEUTICS INC., priority 2021, published 2024):

Experiments:
[1] = test system: SMN2 CJ mRNA; assay: Gene panel canonical junction qPCR assay, SMN2; format: cell-based; conditions: Homo sapiens, larger gene panel, read-out: SMN2 IC50 (decrease in CJ mRNA levels)
Experimental: (§1) Compounds described herein were used to modulate RNA transcript abundance in cells. The expression of a target mRNA was measured by detecting the formation of an exon-exon junction in the canonical transcript (CJ). A compound mediated exon-inclusion event was detected by observing an increase in formation of a new junction with an alternative exon (AJ). Real-time qPCR assays were used to detect these splicing switches and interrogate the potency of various compounds towards different target genes. A high-throughput real time quantitative PCR (RT-qPCR) assay was developed to measure these two isoforms of the mRNA (CJ and AJ) for exemplary genes, such as HTT, SMN2, and MYB, together with a control housekeeping gene, GAPDH or GUSB or PPIA, used for normalization. Briefly, the A673 or K562 cell line was treated with various compounds described herein (e.g., compounds of Formula (I)). After treatment, the levels of the HTT, MYB, or SMN2 mRNA targets were determined from each sample of cell lysate by cDNA synthesis followed by qPCR.
(§2) The A673 cell line was cultured in DMEM with 10% FBS. Cells were diluted with full growth media and plated in a 96-well plate (15,000 cells in 100 ul media per well). The plate was incubated at 37° C. with 5% CO2 for 24 hours to allow cells to adhere. An 11-point 3-fold serial dilution of the compounds was made in DMSO then diluted in media in an intermediate plate. Compounds were transferred from the intermediate plate to the cell plate with the top dose at a final concentration of 10 uM in the well. Final DMSO concentration was kept at or below 0.25%. The cell plate was returned to the incubator at 37° C. with 5% CO2 for an additional 24 hours.
(§3) The K562 cell line was cultured in IMDM with 10% FBS. For K562, cells were diluted with full growth media and plated in either a 96-well plate (50,000 cells in 50 uL media per well) or a 384-well plate (8,000-40,000 cells in 45 uL media per well). An 11-point 3-fold serial dilution of the compounds were made in DMSO then diluted in media in an intermediate plate. Compound was transferred from the intermediate plate to the cell plate with the top dose at a final concentration of 10 uM in the well. Final DMSO concentration was kept at or below 0.25%. Final volume was 100 uL for 96-well plate and 50 uL for 384-well plate. The cell plate was then placed in an incubator at 37° C. with 5% CO2 for 24 hours.
(§4) The data analysis was performed by first determining the ΔCt vs the housekeeper gene. This ΔCt was then normalized against the DMSO control (ΔΔCt) and converted to RQ (relative quantification) using the 2^(−ΔΔCt) equation. The RQ were then converted to a percentage response by arbitrarily setting an assay window of 3.5 and 4.0 ΔCt for HTT-CJ and MYB-CJ respectively and an assay window of 9 and 3 ΔCt for HTT-AJ and MYB-AJ in 96 well format (50,000 K562 cells/well and 15,000 A673 cells per well) and an assay window of 3 and 4 ΔCt for HTT-CJ and MYB-CJ respectively and an assay window of 5 and 3 ΔCt for HTT-AJ and MYB-AJ respectively in 384 well format (8,000 K562 cells/well example). […] The percentage response was then fitted to the 4 parametric logistic equation to evaluate the concentration dependence of compound treatment. The increase in AJ mRNA is reported as AC50 (compound concentration having […] in AJ increase) while the decrease in CJ mRNA levels is reported as IC50 (compound concentration having 50% response in CJ decrease).
(§5) Additional studies were carried out for a larger panel of genes using the protocol provided above. The junction between flanking upstream and downstream exons was used to design canonical junction qPCR assays. At least one of the forward primer, reverse primer or the CY5-labeled 5′ nuclease probe (with 3′ quencher such as ZEN/Iowa Black FQ) was designed to overlap with the exon junction to capture the CJ mRNA transcript. […]

[2] = test system: MYB mRNA; assay: Splicing RT-qPCR assay, MYB canonical (CJ) and alternative (AJ) junction mRNA; format: cell-based; conditions: Homo sapiens, A673 or K562 cells, 24 hours treatment; for IC50: decrease in CJ mRNA; for AC50: increase in AJ mRNA
Experimental: as §1
(§6) • Cells-to-CT 1-step kit: ThermoFisher A25602, Cells-to-CT lysis reagent: ThermoFisher 4391851C, TaqMan™ Fast Virus 1-Step Master Mix: ThermoFisher 4444436 • GAPDH: VIC-PL, ThermoFisher 4326317E (Assay: Hs99999905_ml)—used for K562/suspension cell lines • GUSB: VIC-PL, ThermoFisher 4326320E (Assay: Hs99999908_ml)—used for K562/suspension cell lines • PPIA: VIC-PL, ThermoFisher 4326316E (Assay: Hs99999904_ml)—used for A673/adherent cell lines
as §2, §3
(§7) The cells were then gently washed with 50 uL-100 uL cold PBS before proceeding to addition of lysis buffer. 30 uL-50 μL of room temperature lysis buffer with DNAse I (and optionally RNAsin) was added to each well. Cells were shaken/mixed thoroughly at room temperature for 5-10 minutes for lysis to take place and then 3 uL-5 μL of room temperature stop solution was added and wells were shaken/mixed again. After 2-5 minutes, the cell lysate plate was transferred to ice for RT-qPCR reaction setup. The lysates could also be frozen at −80° C. for later use.
(§8) In some cases, a direct lysis buffer was used. An appropriate volume of 3×lysis buffer (10 mM Tris, 150 mM NaCl, 1.5%-2.5% Igepal and 0.1-1 U/uL RNAsin, pH 7.4) was directly added to either K562 or A673 cells in media and mixed by pipetting 3 times. The plates were then incubated at room temperature with shaking/rocking for 20-50 minutes to allow for lysis to take place. After this time, the cell lysate plate was transferred to ice to set up for the RT-qPCR reactions. The lysates could also be frozen at −80° C. for later use. […]

[3] = test system: HTT mRNA; assay: Splicing RT-qPCR assay, HTT canonical (CJ) and alternative (AJ) junction mRNA; format: cell-based; conditions: Homo sapiens, A673 or K562 cells, 24 hours treatment; for IC50: decrease in CJ mRNA; for AC50: increase in AJ mRNA
Experimental: as §1, §6, §2, §3, §7, §8

[4] = test system: MYB CJ mRNA; assay: Gene panel canonical junction qPCR assay, MYB; format: cell-based; conditions: Homo sapiens, larger gene panel, read-out: MYB IC50 (decrease in CJ mRNA levels)
Experimental: as §1, §2, §3, §4, §5

[5] = test system: HTT CJ mRNA; assay: Gene panel canonical junction qPCR assay, HTT; format: cell-based; conditions: Homo sapiens, larger gene panel, read-out: HTT IC50 (decrease in CJ mRNA levels)
Experimental: as §1, §2, §3, §4, §5

[6] = test system: Target C CJ mRNA; assay: Gene panel canonical junction qPCR assay, Target C; format: cell-based; conditions: Homo sapiens, larger gene panel, read-out: Target C IC50 (decrease in CJ mRNA levels)
Experimental: as §1, §2, §3, §4, §5

[7] = test system: HiBiT-tagged HTT protein in K562 cells; assay: HiBiT protein abundance assay, HTT; format: cell-based, human; conditions: HiBiT-modified K562 cells, 24 hours, luminescence
Experimental: (§9) Compounds described herein were used to screen for effects on quantitative protein abundance using a HiBit assay system (Promega). Quantitative protein abundance was determined by measuring the protein levels of HiBit-tagged protein targets expressed in cell culture via luminescence using the Nano-Glo HiBiT Lytic Detection System, which uses a split complementation assay format to reconstitute NanoBiT enzyme to generate a luminescent signal. A protein abundance assay was developed such that endogenous protein targets could be modified with the HiBiT peptide tag and their abundance could be assessed after compound treatment. Briefly, K562 cell lines containing a HiBiT-modification were treated with various compounds described herein (e.g., compounds of Formulas (I), (II), or (III)). After treatment for 24 hours, the protein abundance of a specific target was determined by measuring luminescence.
(§10) • Promega Nano-Glo HiBiT Lytic Detection System (cat #N3030) • Corning 384-well TC-treated microplates (cat #3570) • Synthego Engineered Cells Knock-In Clones
(§11) Cells were maintained in IMDM with 10% FBS. Before the assay, cells were diluted with […] growth media (IMDM+1% FBS media) and were seeded in a 384-well plate at a density of 10000 cells/well (for each cell line listed in Table 5). Each compound was prepared as a 10-point 3-fold serial dilution in DMSO with the top dose at a final concentration of 10 μM in the well. Unmodified K562 cells were added at the previously specified density with DMSO to serve as an assay baseline and positive control (PC) and DMSO only with the respective modified cell lines was added to the negative control (NC) columns. Final DMSO concentration was kept at or below 0.25%. Treated cell plates were placed in an incubator at 37° C. with 5% CO2 for 24 hours. After 24 hours, 25 μL of Complete HiBit Lytic reagent was added to each well at room temperature (e.g. one plate requiring 10 mL Lytic Buffer, 100 μL LgBiT Protein, 200 μL Lytic Substrate), shaken for 5 minutes at 600 RPM, then left to sit for 10 minutes for signal to stabilize before reading on a Spark Cyto plate reader (Tecan) with a 500 ms measurement time.
(§12) To determine compound effects on protein abundance of each target in Table 5, the percent response for each respective cell line was calculated at each compound concentration as follows:
(§13) For the normalized response at each concentration, a four-parameter logistical regression was fit to the data and the response was interpolated at the 50% value to determine a concentration for protein abundance at 50% (IC50) the untreated control.

[8] = Cell Titer Glo 2.0 cell viability assay; conditions: human, K562 cells
Experimental: Compounds described herein were screened for toxicity in K562 (human chronic myelogenous leukemia) cells using a Cell Titer Glo 2.0 assay.
• Promega CellTiter-Gbo® 2.0 Cell Viability Assay (cat #G9241) • Corning 384-well TC-treated microplates (cat #3570)
Cells were plated at 500 cells/well (K562 cells) in 45 μL of IMDM supplemented with 10% FBS in a 384-well opaque plate. Wells containing only medium were used as a blank control. Test compounds (e.g., compounds of Formula (I), (II), and (III)) were first serially diluted in DMSO then diluted 1:100 with IMDM+10% FBS. The final concentration of DMSO was 0.1% in each well. The cells were incubated for 72 hours at 37° C. and 5% CO2 before assaying with Cell Titer Glo 2.0 reagent.

[9] = test system: HiBiT-tagged Target C protein in K562 cells; assay: HiBiT protein abundance assay, Target C; format: cell-based, human; conditions: HiBiT-modified K562 cells, 24 hours, luminescence
Experimental: as §9, §10, §11, §12, §13

[10] = test system: HiBiT-tagged MYB protein in K562 cells; assay: HiBiT protein abundance assay, MYB; format: cell-based, human; conditions: HiBiT-modified K562 cells, 24 hours, luminescence
Experimental: as §9, §10, §11, §12, §13

Structure (SMILES)	IC50 [1]	IC50 [2]	IC50 [3]	IC50 [4]	IC50 [5]	IC50 [6]	IC50 [7]	IC50 [9]	IC50 [10]	AC50 [2]	AC50 [3]	GI50 at 72 h [8]
Cc1cn2cc(-c3cc4ncn([C@H]5CNCC[C@@H]5O)c(=O)c4s3)cc(F)c2n1 (relative stereo) [Compound 281, 6-{8-fluoro-2-methylimidazo[1,2-a]pyridin-6-yl}-3-[(trans)-4-hydroxypiperidin-3-yl]thieno[3,2-d]pyrimidin-4-one]	1000 to 10000 nM	1000 to 10000 nM	1000 to 10000 nM	1000 to 10000 nM	1000 to 10000 nM	1000 to 10000 nM	–	–	–	1000 to 10000 nM	1000 to 10000 nM	–
CN1CCN(c2nc3ncn(-c4ccc5nn(C)cc5c4)c(=O)c3s2)CC1 [Compound 182, 6-(2-methyl-2H-indazol-5-yl)-2-(4-methylpiperazin-1-yl)thiazolo[4,5-d]pyrimidin-7(6H)-one]	1000 to 10000 nM	–	1000 to 10000 nM	–	1000 to 10000 nM	–	–	–	–	–	1000 to 10000 nM	–
Cc1cc(-c2cn3c(=O)cc(N4CCN(C)CC4)nc3s2)cc2cn(C)nc12 [Compound 183, 2-(2,7-dimethyl-2H-indazol-5-yl)-7-(4-methylpiperazin-1-yl)-5H-thiazolo[3,2-a]pyrimidin-5-one]	1000 to 10000 nM	> 10000 nM	> 10000 nM	> 10000 nM	> 10000 nM	> 10000 nM	–	–	–	> 10000 nM	> 10000 nM	–
Cc1cn2cc(-c3cn4c(=O)cc(N5CCN(C)CC5)nc4s3)cc(F)c2n1 [Compound 184]	1000 to 10000 nM	> 10000 nM	> 10000 nM	> 10000 nM	> 10000 nM	–	–	–	–	1000 to 10000 nM	> 10000 nM	–
Cc1cn2cc(-c3cc4ncn([C@H]5CCNC[C@@H]5O)c(=O)c4s3)cc(F)c2n1 [Compound 280]	100 to 1000 nM	100 to 1000 nM	100 to 1000 nM	100 to 1000 nM	100 to 1000 nM	100 to 1000 nM	–	–	–	100 to 1000 nM	100 to 1000 nM	–
Cc1c(O)c(-c2nc3c(=O)n(C4CCNCC4)cnc3s2)cc2cn(C)nc12 [Compound 283]	–	–	–	–	–	–	1000 to 10000 nM	1000 to 10000 nM	1000 to 10000 nM	–	–	1000 to 10000 nM
O=c1c2sc(-c3ccc(-c4cn[nH]c4)cc3O)nc2ncn1C1CCNCC1 [Compound 334]	–	–	–	–	–	–	> 10000 nM	> 10000 nM	> 10000 nM	–	–	> 10000 nM

Further lines, with some results ahead:

IC50 [1]	IC50 [2]	IC50 [3]	IC50 [4]	IC50 [5]	IC50 [6]	IC50 [7]	IC50 [9]	IC50 [10]	Structure (SMILES)	AC50 [2]	AC50 [3]	GI50 at 72 h [8]
–	–	–	–	–	–	> 10000 nM	> 10000 nM	> 10000 nM	COc1c(-c2nc3ncn(C4CCNCC4)c(=O)c3s2)cc2cn(C)nc2c1C [Compound 335, 2-(6-methoxy-2,7-dimethylindazol-5-yl)-6-(piperidin-4-yl)-[1,3]thiazolo[4,5-d]pyrimidin-7-one]	–	–	> 10000 nM
–	–	–	–	–	–	100 to 1000 nM	100 to 1000 nM	100 to 1000 nM	Cc1c(O)c(-c2nc3ncn(C4CCNCC4)c(=O)c3s2)cc2cn(C)nc12 [Compound 336, 2-(6-hydroxy-2,7-dimethylindazol-5-yl)-6-(piperidin-4-yl)-[1,3]thiazolo[4,5-d]pyrimidin-7-one]	–	–	1000 to 10000 nM
< 100 nM	100 to 1000 nM	100 to 1000 nM	100 to 1000 nM	100 to 1000 nM	1000 to 10000 nM	–	–	–	Cc1cc(-c2cc3ccn(C4CCN(C)CC4)c(=O)c3s2)cc2cn(C)nc12 [Compound 807]	100 to 1000 nM	100 to 1000 nM	1000 to 10000 nM
